What was measured:
[1] = system: matrix metalloproteinase 1 (MMP1) gene; experiment: MMP1 gene expression in normal human dermal fibroblasts; format: cell-based; conditions: 0.001 wt %, 24 hours, control = 100%
Experimental: Using normal human dermal fibroblasts, the effect of resveratrol 3-O-α-glucoside on matrix metalloproteinase 1 (MMP1) and 9 (MMP9) genes in the dermis was investigated.
Normal human dermal fibroblasts were seeded into 12-well culture plates at 9×10^4 cells per well. As the medium, 10 vol % FBS (Fetal Bovine Serum)-containing DMEM medium (basal medium) was used, and the cells were preincubated in 5% CO2 at 37° C. for 24 hours. The medium was removed and then replaced with a basal medium supplemented with 0.001 wt % of resveratrol 3-O-α-glucoside, and the cells were cultured in 5% CO2 at 37° C. After 24 hours, total RNA was extracted from the cells, and the levels of expression of the MMP1 and MMP9 genes were quantified by real time PCR. As a control group, cells were cultured without resveratrol 3-O-α-glucoside, and total RNA collected from these cells was used.
Taking as 100% the level of expression of each of the MMP1 and MMP9 genes for the control group, a relative ratio of the expression level of each of the MMP1 and MMP9 genes for the resveratrol 3-O-α-glucoside-supplemented group (MMP1 and MMP9 gene expression ratios, %) was determined. In the measurement of the expression level of each of the MMP1 and MMP9 genes, GAPDH (glyceraldehyde 3-phosphate dehydrogenase) was used for internal standard correction.

[2] = SOD-like activity (SOD Test Wako kit); format: biochemical
Experimental: Resveratrol 3-O-α-glucoside was dissolved in a 15% ethanol solution to a concentration of 5, 10, or 20 mmol/L, and the resulting solution was used as a sample solution.
Using the sample solution prepared as above, the SOD-like activity was evaluated using an SOD measurement kit (SOD Test Wako; Wako Pure Chemical Industries, Ltd.).

[3] = Storage stability in 30 vol % aqueous ethanol (coloration, residual content); format: physicochemical; conditions: 2 mM in 30 vol % aqueous ethanol, 40° C., light-tight, 6 months
Experimental: Each of resveratrol 3-O-α-glucoside (produced in Production Example 1), resveratrol (Tokyo Chemical Industry Co., Ltd.), and resveratrol 4′-O-α-glucoside (produced in Production Example 1) was dissolved in a 30 vol % aqueous solution of ethanol to a concentration of 2 mM, and the solution was stored at 40° C. under light-tight conditions. The coloration of the solution after being stored for 6 months was visually observed. Further, absorbances at 430 nm of the solution before and after the storage were measured, and the residual amount of each of the components in the solution was analyzed using HPLC. HPLC was performed under the same conditions as those described in Production Example 1.

[4] = Non-Patent Literature 3; cited from earlier work

| SMILES | MMP1 Gene Expression Ratio (%) [1] [%] | SOD-Like Activity (%) ([2]; 5 mmol/L in the sample solution (15% ethanol)) | SOD-Like Activity (%) ([2]; 10 mmol/L in the sample solution (15% ethanol)) | SOD-Like Activity (%) ([2]; 20 mmol/L in the sample solution (15% ethanol)) | Coloration: Difference between Absorbances at 430 nm (Δ A 430) before and after Storage [3] | Coloration: Visual Observation [3] | Residual Content (%) ([3]; HPLC) | water solubility [4] | water solubility relative to that of resveratrol [4] |
| --- | --- | --- | --- | --- | --- | --- | --- | --- | --- |
| OC[C@H]1O[C@H](Oc2cc(O)cc(C=Cc3ccc(O)cc3)c2)[C@H](O)[C@@H](O)[C@@H]1O [Resveratrol 3-O-α-Glucoside, resveratrol 3-O-α-glucoside] | 85 | 18 | 35 | 47 | 0.03 | colorless | 93 |  |  |
| OC[C@H]1O[C@@H](Oc2cc(O)cc(/C=C/c3ccc(O)cc3)c2)[C@H](O)[C@@H](O)[C@@H]1O [Resveratrol 3-O-β-Glucoside, resveratrol 3-O-β-glucoside] |  |  |  |  |  |  |  | approximately 400 μg/mL | approximately 10 fold |

— patent publication US10149809B2, “Skin aging inhibitor and concentrate of resveratrol 3-O-α-glucoside” (priority 2014, dated 2018)
